Experimental data published in PMC6321136, “Combined In Vitro Studies and in Silico Target Fishing for the Evaluation of the Biological Activities of Diphylleia cymosa and Podophyllum hexandrum” (Molecules, 2018).

Legend:
[1] = system: Cytotoxicity, Antagonist, androgen receptor (AR); parameters: method as in PubChem Bioassay AID 743041; conditions: ref PubChem Bioassay AID 743041; cited from earlier work
[2] = system: Antagonist, androgen receptor (AR); parameters: method as in PubChem Bioassay AID 1259243; conditions: ref PubChem Bioassay AID 1259243; cited from earlier work
[3] = system: Enterohemorrhagic E. coli ATCC 43895-EHEC; test: Antibacterial microdilution assay; format: cell-based, Escherichia coli
Cytotoxicity = system: Cytotoxicity; parameters: method as in PubChem Bioassay AID 624476; conditions: ref PubChem Bioassay AID 624476; cited from earlier work
[4] = Thiobarbituric acid reactive substances (TBARS) assay; parameters: species or system bovine
Protocol: The evaluation of antioxidant activity using the TBARS assay, with adaptations. Briefly, the samples were solubilized in methanol (50.0 to 31.25 μg/mL) and a portion of 25 μL of each extract solution was added to 10 mL test tubes in triplicate (two reaction tubes and one control). The tubes corresponding to the blank, negative and positive controls were prepared by adding 25 μL of deionized water, MeOH or propylgalate (Sigma, St. Louis, MO, USA, 0.1 mM), respectively. The phospholipid liposomes were prepared using bovine brain extract type VII (Sigma Aldrich, St. Louis, MO, USA, 10 mg/mL) in phosphate buffered saline (PBS) solution. The suspension was subjected to an ultrasonic bath until the formation of the liposomes. […] The butanolic phase was removed and transferred to a 96-well microplate, and the absorbance was recorded on a Multiskan Go microplate reader (Thermo Scientific, Whaltham, MA, USA) at 532 nm. The percentage of inhibition (%I) of lipid peroxidation was calculated as: %I = ((AC − AS)/AC) × 100 where AC is the absorbance of control, AS is the absorbance of samples. Assays were performed in triplicate and IC50 values were determined by non-linear regression using GraphPad Prism, version 6.0 (GraphPad Software, San Diego, CA, USA). […]

Cytotoxicity, A549 = system: Cytotoxicity, A549; parameters: method as in PubChem Bioassay AID 371; conditions: ref PubChem Bioassay AID 371; cited from earlier work
Anticancer, Yes1 kinase = system: Anticancer, Yes1 kinase; parameters: method as in PubChem Bioassay AID 686947; conditions: ref PubChem Bioassay AID 686947; cited from earlier work
[5] = system: Antagonist, constitutive androstane receptor (CAR); parameters: method as in PubChem Bioassay AID 1224838; conditions: ref PubChem Bioassay AID 1224838; cited from earlier work
[6] = system: Antagonist, peroxisome proliferator-activated receptor delta (PPARd); parameters: method as in PubChem Bioassay AID 743215; conditions: ref PubChem Bioassay AID 743215; cited from earlier work
[7] = system: Agonist, thyroid stimulating hormone receptor (TSHR); parameters: method as in PubChem Bioassay AID 1224895; conditions: ref PubChem Bioassay AID 1224895; cited from earlier work
Anti-Inflammatory model = system: Anti-Inflammatory model; parameters: method as in PubChem Bioassay AID 489035; conditions: ref PubChem Bioassay AID 489035; cited from earlier work
[8] = system: Activate, aryl hydrocarbon receptor (AhR); parameters: method as in PubChem Bioassay AID 743122; conditions: ref PubChem Bioassay AID 743122; cited from earlier work

## COc1cc([C@@H]2c3cc4c(cc3[C@H](O)[C@H]3COC(=O)[C@H]23)OCO4)cc(OC)c1OC [Podophyllotoxin, podophyllotoxin]
[1]
  Exper. Activity: Inactive
[2]
  Exper. Activity: Inactive
[3]; 250 µg/mL
  EHEC E. coli Mean ± SD (percentage of inhibition of microbial growth): No antibacterial activity
[3]; Escherichia coli, ATCC43895, read-out: EHEC E. coli Mean ± SD (percentage of inhibition of microbial growth)
  inhibition at 250 µg/mL: 33 ± 7.76%
Cytotoxicity
  Exper. Activity: Inactive
[4]
  Antioxidant Activity (IC50-µg/mL) TBARS Assay: >50 µg/mL
Cytotoxicity, A549
  Exper. Activity: Active
Anticancer, Yes1 kinase
  Exper. Activity: Inactive
[5]
  Exper. Activity: Active
[6]
  Exper. Activity: Inactive
[7]
  Exper. Activity: Inactive
Anti-Inflammatory model
  Exper. Activity: Inactive
[8]
  Exper. Activity: Active
